Laboratory results taken from patent publication US10323018B2 (Millennium Pharmaceuticals, Inc., priority 2015, dated 2019).

Assays:
hNAMPT protein = hNAMPT protein (Homo sapiens (Human), UniProt P43490); test: NAMPT enzyme assay (TR-FRET/HTRF with BodiPY ligand); assay type: binding; details: for inhibition at 1 µM: NAMPT inhibition at compound concentration 1 μM, read-out: Percent Inhibition; for IC50: NAMPT inhibition, IC50 range class
In short: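 Ligand displacement by TR-FRET: BodiPY emission (520 nm) over terbium (486 nm) after 320 nm excitation. Compound, BodiPY ligand, hNAMPT and anti-6His-Tb incubated 1 h at room temperature, dark, at pH 7.5. Percent inhibition computed versus DMSO; concentration-response curves fitted for IC50.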

PC3 cells = test: PC3 growth inhibition (Cell-titer glo, 72 hours); assay type: cell-based; details: Homo sapiens, PC-3, 72 h, read-out: Percent Viability, PC3 cells, compound concentration 1.667 μM, 72 hours
In short: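 After 72 h compound treatment in AIM serum-free medium (37 °C, 5% CO2), viability of overnight-plated PC3 cells (8×10^4 cells/ml, RPMI1640-maintained) is read by CellTiter-Glo luminescence versus DMSO. Curves give GI50, LD50 or single-concentration % remaining viability.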

hNAMPT protein, sequence (P43490 whole entry): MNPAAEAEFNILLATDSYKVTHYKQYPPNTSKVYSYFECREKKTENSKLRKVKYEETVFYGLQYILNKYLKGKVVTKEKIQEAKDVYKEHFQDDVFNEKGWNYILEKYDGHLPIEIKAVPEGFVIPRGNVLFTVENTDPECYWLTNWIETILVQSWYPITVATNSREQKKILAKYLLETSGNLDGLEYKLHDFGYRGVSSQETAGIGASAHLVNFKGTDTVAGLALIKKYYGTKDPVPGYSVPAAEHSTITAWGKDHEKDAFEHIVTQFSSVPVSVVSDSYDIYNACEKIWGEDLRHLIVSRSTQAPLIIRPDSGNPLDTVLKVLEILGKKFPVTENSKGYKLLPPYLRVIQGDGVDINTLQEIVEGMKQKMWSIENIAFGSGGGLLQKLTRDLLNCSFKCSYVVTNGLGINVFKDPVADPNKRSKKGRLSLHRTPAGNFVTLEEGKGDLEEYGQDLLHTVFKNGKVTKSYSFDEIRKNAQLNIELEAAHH

| Compound | inhibition at 1 µM (hNAMPT protein) [%] | IC50 (hNAMPT protein) [µM] | viability at 1.667 µM (PC3 cells) [%] |
| --- | --- | --- | --- |
| CCOc1cc(-c2ccncc2)nc2cc(C(=O)NCCCc3nnc[nH]3)ccc12 [Compound I-214, 4-ethoxy-2-(pyridin-4-yl)-N-[3-(4H-1,2,4-triazol-3-yl)propyl]quinoline-7-carboxamide] | 97 | 0.01 to 0.05 | 1 |
| CCOc1cc(-c2cccc(C(F)(F)F)c2)nc2cc(C(=O)NCCCc3nnc[nH]3)ccc12 [Compound I-215, 4-ethoxy-N-[3-(4H-1,2,4-triazol-3-yl)propyl]-2-[3-(trifluoromethyl)phenyl]quinoline-7-carboxamide] | 93 | 0.05 to 0.1 | 1 |
| CCOc1cc(-c2cccc(OC(F)(F)F)c2)nc2cc(C(=O)NCCCc3nnc[nH]3)ccc12 [Compound I-216, 4-ethoxy-N-[3-(4H-1,2,4-triazol-3-yl)propyl]-2-[3-(trifluoromethoxy)phenyl]quinoline-7-carboxamide] | 92 | 0.05 to 0.1 | 1 |
| CCOc1cc(-c2ccc(C(F)(F)F)nc2)nc2cc(C(=O)NCCCc3nnc[nH]3)ccc12 [Compound I-217, 4-ethoxy-N-[3-(4H-1,2,4-triazol-3-yl)propyl]-2-[6-(trifluoromethyl)pyridin-3-yl]quinoline-7-carboxamide] | 94 | 0.01 to 0.05 | 2 |
| CCOc1cc(-c2ccnc(C(F)(F)F)c2)nc2cc(C(=O)NCCCc3nnc[nH]3)ccc12 [Compound I-218, 4-ethoxy-N-[3-(4H-1,2,4-triazol-3-yl)propyl]-2-[2-(trifluoromethyl)pyridin-4-yl]quinoline-7-carboxamide] | 93 | 0.05 to 0.1 | 2 |
| CCOc1cc(-c2ccc(F)cc2)nc2cc(C(=O)NCCCc3nnc(N)[nH]3)ccc12 [Compound I-220, N-[3-(5-amino-4H-1,2,4-triazol-3-yl)propyl]-4-ethoxy-2-(4-fluorophenyl)quinoline-7-carboxamide] | 92 | 0.05 to 0.1 | 2 |
| CCOc1cc(-c2ccc(F)cc2)nc2cc(C(=O)NCCc3nn[nH]n3)ccc12 [Compound I-221, 4-ethoxy-2-(4-fluorophenyl)-N-[2-(2H-tetrazol-5-yl)ethyl]quinoline-7-carboxamide] | 53 | > 0.1 | 89 |
| CCOc1cc(-c2ccc(F)cc2)nc2cc(C(=O)N[C@H]3C[C@@H](c4nnc[nH]4)C3)ccc12 [Compound I-222, 4-ethoxy-2-(4-fluorophenyl)-N-[cis-3-(4H-1,2,4-triazol-3-yl)cyclobutyl]quinoline-7-carboxamide] | 96 | 0.01 to 0.05 | 4 |
| CCOc1cc(-c2ccc(C)s2)nc2cc(C(=O)NCCCc3nnc[nH]3)ccc12 [Compound I-223, 4-ethoxy-2-(5-methyl-2-thienyl)-N-[3-(4H-1,2,4-triazol-3-yl)propyl]quinoline-7-carboxamide] | > 99 | 0.01 to 0.05 | 3 |
| CCOc1cc(-c2ccc(F)cc2)nc2cc(C(=O)NCCCc3cncn3C)ccc12 [Compound I-224, 4-ethoxy-2-(4-fluorophenyl)-N-[3-(1-methyl-1H-imidazol-5-yl)propyl]quinoline-7-carboxamide] | > 99 | < 0.01 | 2 |
| CCOc1cc(-c2cc(OC)ncc2F)nc2cc(C(=O)NCCCc3nnc[nH]3)ccc12 [Compound I-225, 4-ethoxy-2-(5-fluoro-2-methoxypyridin-4-yl)-N-[3-(4H-1,2,4-triazol-3-yl)propyl]quinoline-7-carboxamide] | 97 | 0.01 to 0.05 | 2 |
| CCCc1cc(OCC)c2ccc(C(=O)NCCCc3ncc[nH]3)cc2n1 [Compound I-226, N-(3-(1H-imidazol-2-yl)propyl)-4-ethoxy-2-propylquinoline-7-carboxamide] | 86 | > 0.1 | 14 |
| CCOc1cc(-c2ccc(F)cc2)nc2cc(C(=O)NCCCc3ccc(C)nc3)ccc12 [Compound I-227, 4-ethoxy-2-(4-fluorophenyl)-N-[3-(6-methylpyridin-3-yl)propyl]quinoline-7-carboxamide] | 100 | < 0.01 | 6 |
| CCOc1cc(-c2ccc(F)cc2)nc2cc(C(=O)NCCCc3cncnc3)ccc12 [Compound I-228, 4-ethoxy-2-(4-fluorophenyl)-N-[3-(pyrimidin-5-yl)propyl]quinoline-7-carboxamide] | 94 | < 0.01 | 5 |
| O=C(NCCCc1ncc[nH]1)c1ccc2c(OCCO)cc(-c3ccc(F)cc3)nc2c1 [Compound I-229, 2-(4-fluorophenyl)-4-(2-hydroxyethoxy)-N-[3-(1H-imidazol-2-yl)propyl]quinoline-7-carboxamide] | 99 | < 0.01 | 2 |
